Test results as given in US9808527B2, “Methods and compositions for treating HIV infections” (priority 2006, dated 2017).

Columns and labels:
[1] = test system: HIV-1 isolates of all subtypes (subtypes A, B, C, and E); experiment: p24 assay, PHA-PBMs, panel of HIV-1 isolates of subtypes A, B, C, and E; type: cell-based; conditions: Human immunodeficiency virus 1, read-out: IC50 against HIV-1 isolates of subtypes A, B, C, and E
Experimental: Drug susceptibility assay. The susceptibility of HIV-1LAI, HIV-2EHO, HIV-2ROD, to various drugs and the cytotoxicity of those drugs was determined by using the MTT assay. Briefly, MT-2 cells (2×10^4/mL) were exposed to 100 TCID50s (50% tissue culture infectious doses) of HIV-1LAI, HIV-2EHO, or HIV-2ROD in the presence or absence of various concentrations of drugs in 96-well microculture plates and were incubated at 37° C. for 7 days. After 100 μL of the medium was removed from each well, 3-(4,5-dimethylthiazol-2-yl)-2,5-diphenyltetrazolium bromide (MTT) solution (10 μL, 7.5 mg/mL in phosphate-buffered saline) was added to each well in the plate, followed by incubation at 37° C. for 4 hours. […] All assays were performed in duplicate or triplicate. […] On day 7 of culture, the supernatant was harvested and the amount of p24 Gag protein was determined by using a fully automated chemiluminescent enzyme immunoassay system (Lumipulse F; Fujirebio Inc., Tokyo, Japan) (22). […]
The IC50 values were determined by using PHA-PBMs as target cells and the inhibition of p24 Gag protein production by each drug was used as an endpoint. […]

[2] = test system: HIV-1NL4-3; experiment: In vitro selection of HIV-1 variants resistant to GRL-98065; type: cell-based
Text: Generation of PI-resistant HIV-1 in vitro. MT-4 cells (10^5/mL) were exposed to HIV-1NL4-3 (500 TCID50) and cultured in the presence of various PIs at an initial concentration of its IC50 values. Viral replication was monitored by determination of the amount of p24 Gag produced by MT-4 cells. The culture supernatants were harvested on day 7 and used to infect fresh MT-4 cells for the next round of culture in the presence of increasing concentrations of each drug. […] Proviral DNA samples obtained from the lysates of infected cells were subjected to nucleotide sequencing. This drug selection procedure was carried out until the drug concentration reached 1 or 5 μM.
The protease-encoding region of the proviral DNA isolated from infected MT-4 cells was cloned and sequenced at passages 5, 10, 15, 20, 25, 30, 33, and 40. […] Met46 is located on the flap region of the enzyme.

[3] = target: T1, HIV-1 protease (Human immunodeficiency virus type 1 group M subtype B, UniProt P04585, C555A/C583A/L521I/L551I/Q495K/V491I); experiment: biochemical; type: biochemical
T1 construct: Wild-type PR at final concentrations of 160-190 nM were added
Text: Enzyme kinetics. The chromogenic substrate Lys-Ala-Arg-Val-Nle-p-nitroPhe-Glu-Ala-Nle-amide (Sigma, St. Louis, Mo.) was used to determine the kinetic parameters (Kovalevsky et al. J Mol Biol 363(1):161-173 (2006), Ghosh et al. J Med Chem 49(17):5252-5261 (2006)). […] The kcat and Km values were obtained employing standard data fitting techniques for a reaction obeying Michaelis-Menten kinetics. The data curves were fitted using SigmaPlot 8.0.2 (SPSS Inc., Chicago, Ill.). The active enzyme concentrations were calculated from the intercept of the linear fit to the IC50 versus [S] plots with the IC50 axis. The Ki values were obtained from the IC50 values estimated from an inhibitor dose-response curve with the spectroscopic assay using the equation Ki=(IC50-[E]/2)/(1+[S]/Km), where [E] and [S] are the PR and substrate concentrations, respectively (Maibaum & Rich J Med Chem 31(34):625-629 (1988)). The Ki values were measured at four to five substrate concentrations. The measurement was repeated at least three times to produce the average values.

CC(C)CN(CC(O)C(Cc1ccccc1)NC(=O)OC1COC2OCCC12)S(=O)(=O)c1ccc2c(c1)OCO2 (stereo not shown) [GRL-98065]
IC50 [1]: 0.2 to 0.5 nM | fold increase of drug concentration tolerated by selected virus ([2]; 40 passages in MT-4 cells, start 0.0005 μM): 1,000 | drug concentration at which selected virus was still propagating ([2]; after 40 passages in MT-4 cells): 0.5 µM | Ki [3]: 0.014 nM
